Measurements published in patent publication US20090246248A1, “COATING COMPOSITIONS HAVING IMPROVED PERFORMANCE” (priority 2008, published 2009).
Square brackets hold non-standard residues; d marks the D form. Ends that are not written are not given here. Aun = NCCCCCCCCCCC(=O)O

Legend:
[1] = Critical micelle concentration (methyl orange assay); format: physicochemical; settings: pH 7 PBS, A484
Description: Formation of a composition of the invention, and evidence of macromolecular network formation, may be monitored or quantified by any means known in the art. In this example, macromolecular formation was detected using a standard assay for determining critical micelle concentration (“CMC”). In this assay, a solution containing the composition of the invention (in a range of concentrations in pH 7 phosphate buffered saline (“PBS”)) was mixed with a solution of methyl orange (0.04 mM in PBS), and the absorbance of the mixture was measured at 484 nm (A484). CMC is the concentration at which a sharp decrease in absorbance at A484 is observed, a change in the optical properties of methyl orange when trapped in a hydrophobic phase, such as caused by self-association as a macromolecular network (Table 7, “CMC”). Also included in this assay were an assay control peptide having an amino acid sequence of SEQ ID NO:122 (Table 7, “Control”), and compound 119 (a PEGylated peptide, the peptide having an amino acid sequence of SEQ ID NO:122, as described in more detail in Example 6 herein).

[2] = Binding assay for glycopeptide antibiotic (biotinylated vancomycin, immobilized peptide); settings: peptide immobilized on streptavidin plate
Description: A typical binding assay for glycopeptide antibiotic was performed according to the following procedure. Briefly, synthetic peptides comprising an amino acid sequence to be characterized for binding were biotinylated to facilitate immobilization on streptavidin-coated 96-well plates. The microtiter plates were coated with streptavidin by adding 50 μl of a 10 μg/ml streptavidin solution in 0.1 M NaHCO3, and incubating the plates for at least 3 hours. The plate wells were blocked by adding 150 μl of a 1% BSA solution in 0.1 NaHCO3 with incubation for at least 2 hours, and the plates were stored at 4° C. until needed. Before use, the streptavidin plates were washed extensively in buffer-T. Added per well was peptide (100 μl 0.1 μM peptide in buffer-T), and then incubated for 30 minutes at room temperature with shaking. 200 μl of 0.5 mM biotin in buffer-T was added to block the remaining streptavidin sites, and plates were incubated for 15 minutes at room temperature. Plates were then washed with buffer-T to remove the excess biotin and peptide. Serial dilutions of biotinylated glycopeptide antibiotic in buffer-T were added (100 μl) to each well, representing a range of concentrations between 100 μM and […]. Plates were incubated for 30 minutes at room temperature with shaking prior to washing several times with buffer-T. Glycopeptide antibiotic was then detected by adding 100 μl of a diluted streptavidin-alkaline phosphatase conjugate to each well and incubated at room temperature for 30 minutes. Excess conjugate was removed by repeated washes with buffer-T, and the amount of alkaline phosphatase remaining in the well was detected using a pNPP (para-nitrophenylphosphate) colorimetric enzymatic assay. The relative amount of glycopeptide antibiotic captured by the peptides was determined by measuring the absorbance at 405 nm of the colored product of the alkaline phosphatase reaction. The EC50 was determined for each peptide relative to the binding affinity for the glycopeptide antibiotic used in the assay, as shown in Table 8 (with vancomycin as a representative glycopeptide antibiotic).

[3] = format: binding; settings: 18 hour incubation in 10% BSA+10 mM guanidinium chloride; FIG. 1
Excerpt: In this example, illustrated are unexpected beneficial properties of the composition of the invention, including but not limited to, one or more improved biophysical properties. Such one or more unexpected beneficial properties of a composition of the invention may comprise an increase in stability. An increase in stability may comprise any one or more of resistance to chemical denaturation, resistance to proteolytic degradation, improved retention to a substrate (e.g., resistance to being competed off a substrate to which it is bound, such as by proteins or other biomolecules found in body tissues). Thus, to ascertain a beneficial property of a composition of the invention, it is compared to the properties of a component of the composition-namely, a substrate-binding peptide by itself (e.g., without fatty acid covalently coupled thereto). An assay was developed that, from our direct comparisons (see, e.g., discussion of FIG. 2 below, and Example 7 herein), mimicked the effect of incubation of substrate-binding peptide with human plasma on stability of binding of a substrate-binding peptide to its substrate. The assay utilized incubations in the presence of 10% bovine serum album (BSA) with 10 mM guanidinium chloride. The high BSA concentration mimics the elevated albumin content of human plasma, and the guanidinium chloride is used to compete with any charged interactions involved in binding of the substrate-binding peptide to its substrate.
In this assay, two immunoassay plates were prepared for a “side-by-side” comparison of binding of a test sample (substrate-binding peptide or composition of the invention) to its substrate with or without the presence of 10% BSA with 10 mM guanidinium chloride. The wells of each 96-well polypropylene plate were incubated with 350 μl BSA 1% in PBS for 30 minutes at 20° C. with 500 rpm shaking. To each well was added one acetone-cleaned 3/32″ 316LVM stainless steel bead, followed by addition of dilutions in PBS of the test sample in a range of concentrations starting from 10 μM. Final volume in each well was 200 μl. The plates were incubated for 1 hour at 20° C. with 500 rpm shaking to allow for the binding to occur. The beads were washed 3 times with 250 μl PBS using a plate washer. […]
In the immunoassay for detecting binding without the presence of 10% BSA with 10 mM guanidinium chloride, added to each well was 200 μl of streptavidin AP (AP is alkaline phosphatase) at 1/200 in TBS+1% BSA. […] When color has developed, each well was read at OD405 nm in endpoint mode using a plate reader. […] When color has developed, the wells were read at OD405 nm in endpoint mode using a plate reader. […]

[4] = Stent flow model, retention of radiolabelled composition on coated stent; format: binding; settings: 5 ml/min, 37° C.
Description: In this example, an in vitro model for in vivo stability on a medical device comprising a stent was performed. The stent flow model included a “circulatory system” comprising a peristaltic pump and clear silicone tubing into which is placed a stent (8 mm, stainless steel) coated with a composition according to the invention. Coating of the stents was accomplished by incubating the stents with radiolabelled composition 132 (specific activity 2,400 cpm/pmole at 20 μM in PBS) for 1 hour at 20° C., followed by extensive washing with buffer. […] In another variation of the stent flow model, 10% BSA+10 mM guanidinium chloride was circulated through the circulatory system at a flow rate of 5 ml/min for 18 hours at 37° C. After circulation in the respective variations of the stent flow model, the coated stents were then counted for radioactivity. To serve as an assay “control”, some coated stents were not placed in the stent flow model, but rather counted for radioactive counts to provide a reference from which percent retention could be calculated for those coated stents included in the stent flow model.

[5] = tested on: Staphylococcus aureus strain MZ100; experiment: Tibia pin assay (coated titanium pins with vancomycin, bacterial culture); format: cell-based; set-up: key: —: no cfus; too many cfus to count, as they converge into one spot; settings: 3 hours 37° C.
Excerpt: In this assay, titanium pins were used as a model for tibia pins. Briefly, sterile pins were first coated with biofunctional composition (“SEQ ID NO:124-linker-SEQ ID NO:122”) comprising a substrate-binding peptide having binding specificity for vancomycin (“SEQ ID NO:124”) linked to a substrate-binding peptide having binding specificity for metal (“SEQ ID NO:122”), or a composition of the invention formed from compound comprising the biofunctional composition covalently coupled to fatty acid. The respective coatings also include vancomycin bound thereto. The coated pins were then placed in a silicone tube containing liquid bacterial growth medium and inoculated with bacteria. After incubation, the pins were removed, and then the liquid growth medium was serially diluted. The serial dilutions were inoculated onto bacterial culture plates, the plates were incubated, and counted on the plates were bacterial colonies.
In this assay, test samples (biofunctional composition (Table 6, “BC”) or compositions 133, 134, 135, 136 139) each were used to coat a pin by incubating the test sample (in a range of from about 0.8 mM to about 1 mM) with 2.5 μl of a 10 mM vancomycin solution and PBS to a final volume of 250 μl in a microtube (3 pins per tube) for 60 minutes at room temperature with occasional agitation. In a piece of silicone tubing (1.5 mm inner diameter, 50 mm long), added is tryptic soy broth+0.2% glucose, the coated pin, and 103 colony forming units (cfu) of Staphylococcus aureus strain MZ100 in either a 20 μl inoculum, 40 μl inoculum, or 60 μl inoculum. The tubing is clamped closed, and the tubing is incubated for 37° C. for 3 hours. After 3 hours, serial dilutions (1:10, 1:100, 1:1000) were made of the culture media from each tubing, and 10 μl of the undiluted culture medium and of each dilution were spotted onto the bacterial culture plate. The bacterial culture plate was incubated overnight at 37° C., and then the cfus were counted. The results, a composite of different assay runs, are shown in Table 6 (“−” means no cfus; “many” means too many cfus to count, as they converge into one spot; “NT” means not tested).

Substance	CMC [1]	EC50 [2]	retention of binding compared to substrate-binding peptide alone (SEQ ID NO:122) [3]	further results
SSHRTNHKKNNPKKKNKTRGSSGK [Compound 131, AUD-AUD-AUD-AUD-AUD-AUD-AUD-AUD-SEQ ID NO: 122]	0.37 µM	0.1 µM		
119: Fmoc-NH-(PEG)27-CO2H covalently coupled to a peptide having the amino acid sequence of SEQ ID NO:122 (PEGylated peptide) (SSHRTNHKKNNPKKKNKTRGSSGK; also: Fmoc-NH-(PEG)27-CO2H covalently coupled, site not given here) [Compound 119]	>>10 μM		failed to promote retention	
120: amino acid sequence YWAWAYAW (SEQ ID NO:129) covalently coupled to a peptide having the amino acid sequence of SEQ ID NO:122 (YWAWAYAWSSHRTNHKKNNPKKKNKTRGSSGK) [Compound 120]			failed to promote retention	
Ac-Y-AUD-AUD-AUD-AUD-AUD-AUD-SEQ ID NO: 122 (Ac-Y[Aun][Aun][Aun][Aun][Aun][Aun]SSHRTNHKKNNPKKKNKTRGSSGK) [Compound 132]	0.123 µM	0.06 µM		composition remained bound to the coated stents ([4]; 10% BSA+10 mM guanidinium chloride, 18 hours): over 90%; composition remained bound to the coated stents ([4]; human plasma, 7 days): over 90%
AUD-AUD-AUD-AUD-SEQ ID NO:122 ([Aun][Aun][Aun][Aun]SSHRTNHKKNNPKKKNKTRGSSGK) [Compound 122]	0.123 µM		significantly improved retention	
SSSCLIDMYGVCHNFDGAYDSSRG [Compound 134, AUD-AUD-AUD-AUD-SEQ ID NO: 124-linker-SEQ ID NO: 122]		10 µM		cfu 1:10 ([5]; Volume 20 μl inoculum): —; cfu 1:100 ([5]; Volume 20 μl inoculum): —; cfu 1:1000 ([5]; Volume 20 μl inoculum): —; cfu undiluted ([5]; Volume 20 μl inoculum): —; cfu 1:10 ([5]; Volume 40 μl inoculum): 6 cfu; cfu 1:100 ([5]; Volume 40 μl inoculum): 1 cfu; cfu 1:1000 ([5]; Volume 40 μl inoculum): —; cfu undiluted ([5]; Volume 40 μl inoculum): many; cfu 1:10 ([5]; Volume 60 μl inoculum): 17 cfu; cfu 1:100 ([5]; Volume 60 μl inoculum): 5 cfu; cfu 1:1000 ([5]; Volume 60 μl inoculum): —; cfu undiluted ([5]; Volume 60 μl inoculum): many
SSHRTNHKKNNPKKKNKTRGSSGK [Compound 130, AUD-AUD-AUD-AUD-AUD-AUD-SEQ ID NO: 122]	0.041 µM	10 µM		
AUD-AUD-K-AUD-AUD-AUD-AUD-SEQ ID NO: 122 ([Aun][Aun]K[Aun][Aun][Aun][Aun]SSHRTNHKKNNPKKKNKTRGSSGK) [Compound 123]	0.04 µM		significantly improved retention	
